pKd, pKi: −log10 of the molar value.
Key:
[1] = target: T1, Adenosine receptor A1 (Homo sapiens) (UniProt P30542); test: Displacement of [3H]DPCPX from human adenosine A1 receptor expressed in CHO cells relative to untreated control; format: cell-based
T1 sequence (whole entry): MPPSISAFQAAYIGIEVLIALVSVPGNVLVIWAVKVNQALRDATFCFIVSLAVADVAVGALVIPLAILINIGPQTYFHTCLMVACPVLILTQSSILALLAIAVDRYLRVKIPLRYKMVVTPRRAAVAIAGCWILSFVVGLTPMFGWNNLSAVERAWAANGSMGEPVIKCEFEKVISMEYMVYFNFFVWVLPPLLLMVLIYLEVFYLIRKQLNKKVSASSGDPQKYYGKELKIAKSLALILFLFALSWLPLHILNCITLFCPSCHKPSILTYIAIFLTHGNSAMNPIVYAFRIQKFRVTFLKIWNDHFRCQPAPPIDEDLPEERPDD

[2] = target: T1, Adenosine receptor A1 (Homo sapiens); test: Activity at human recombinant adenosine A1 receptor expressed in CHO cells assessed as of cAMP level at 0.1 uM; format: functional, cell-based
[3] = target: T1, Adenosine receptor A1 (Homo sapiens); test: Activity at human recombinant adenosine A1 receptor expressed in CHO cells assessed as cAMP level at 0.01 uM; format: functional, cell-based
[4] = target: T1, Adenosine receptor A1 (Homo sapiens); test: Displacement of [3H]CCPA from human adenosine A1 receptor expressed in CHO cells assessed for per milligram of protein; format: cell-based
[5] = target: T1, Adenosine receptor A1 (Homo sapiens); test: Displacement of [3H]CCPA from human adenosine A1 receptor expressed in CHO cells relative to untreated control; format: cell-based
[6] = target: Adenosine receptor A2a (Homo sapiens) (UniProt P29274); test: Displacement of [3H]ZM241385 from human adenosine A2A receptor expressed in CHO cells at 10 uM; format: cell-based
Sequence of Adenosine receptor A2a (Homo sapiens) (P29274 whole entry): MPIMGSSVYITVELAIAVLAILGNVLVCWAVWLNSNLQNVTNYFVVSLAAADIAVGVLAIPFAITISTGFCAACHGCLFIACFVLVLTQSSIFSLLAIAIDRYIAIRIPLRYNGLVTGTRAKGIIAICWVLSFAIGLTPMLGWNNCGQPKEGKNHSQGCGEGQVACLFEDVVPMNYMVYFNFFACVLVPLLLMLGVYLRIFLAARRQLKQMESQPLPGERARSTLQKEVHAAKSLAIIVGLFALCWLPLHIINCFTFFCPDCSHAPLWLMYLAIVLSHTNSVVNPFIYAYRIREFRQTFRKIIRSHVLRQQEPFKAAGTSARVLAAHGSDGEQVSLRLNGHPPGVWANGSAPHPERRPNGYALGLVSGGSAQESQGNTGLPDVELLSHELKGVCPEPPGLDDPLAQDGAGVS

[7] = target: T1, Adenosine receptor A1 (Homo sapiens); test: Displacement of [3H]DPCPX from human adenosine A1 receptor expressed in CHO cells assessed for per milligram of protein; format: cell-based
[8] = target: T2, Adenosine receptor A1 (Homo sapiens, UniProt P30542); test: Displacement of [3H]CCPA from human adenosine A1 receptor expressed in CHO cells; format: cell-based
T2 sequence (P30542 whole entry): T1 sequence (whole entry)

[9] = target: T2, Adenosine receptor A1; test: Displacement of [3H]DPCPX from human adenosine A1 receptor expressed in CHO cells; format: cell-based
[10] = target: T1, Adenosine receptor A1 (Homo sapiens); test: Activity at human recombinant adenosine A1 receptor expressed in CHO cells assessed as cAMP level at 10 uM; format: functional, cell-based
[11] = target: T1, Adenosine receptor A1 (Homo sapiens); test: Displacement of [3H]DPCPX from human adenosine A1 receptor expressed in CHO cells at 10 uM; format: cell-based
[12] = target: T3, Adenosine receptor A3 (Homo sapiens) (UniProt P0DMS8); test: Displacement of [3H]MRE3008F20 from human adenosine A3 receptor expressed in CHO cells at 10 uM; format: cell-based
T3 sequence (whole entry): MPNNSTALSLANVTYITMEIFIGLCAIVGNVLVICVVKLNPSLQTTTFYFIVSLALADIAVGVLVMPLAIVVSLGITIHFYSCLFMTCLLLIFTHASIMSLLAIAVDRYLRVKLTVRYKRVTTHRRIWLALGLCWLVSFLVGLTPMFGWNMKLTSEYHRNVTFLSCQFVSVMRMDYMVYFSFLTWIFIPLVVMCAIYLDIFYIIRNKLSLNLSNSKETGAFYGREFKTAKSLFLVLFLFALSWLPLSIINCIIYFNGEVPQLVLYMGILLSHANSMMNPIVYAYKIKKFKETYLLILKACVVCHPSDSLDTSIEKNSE

[13] = target: T1, Adenosine receptor A1 (Homo sapiens); test: Activity at human recombinant adenosine A1 receptor expressed in CHO cells assessed as cAMP level at 1 uM; format: functional, cell-based
[14] = target: T4, Adenosine receptor A1 (Rattus norvegicus, UniProt P25099); test: Displacement of [3H]DPCPX from adenosine A1 receptor in rat membranes; format: cell membranes
T4 sequence (P25099 whole entry): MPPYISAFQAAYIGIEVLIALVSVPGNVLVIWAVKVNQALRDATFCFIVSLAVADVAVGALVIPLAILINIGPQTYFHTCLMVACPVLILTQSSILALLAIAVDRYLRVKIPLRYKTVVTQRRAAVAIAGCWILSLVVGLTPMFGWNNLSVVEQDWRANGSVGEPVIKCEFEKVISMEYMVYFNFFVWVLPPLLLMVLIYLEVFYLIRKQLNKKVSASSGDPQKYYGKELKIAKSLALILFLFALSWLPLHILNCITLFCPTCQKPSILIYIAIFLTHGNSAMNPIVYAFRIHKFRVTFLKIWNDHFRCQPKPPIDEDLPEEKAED

[15] = target: T1, Adenosine receptor A1 (Homo sapiens); test: Displacement of [3H]DPCPX from human adenosine A1 receptor expressed in CHO cells at 100 uM; format: cell-based

| Activity [1] | Activity [2] | Activity [3] | Bmax [4] | Activity [5] | Activity [6] | Bmax [7] | pKd [8] | pKd [9] | Activity [10] | Activity [11] | Activity [12] | Activity [13] | pKi [14] | Activity [15] | SMILES |
| --- | --- | --- | --- | --- | --- | --- | --- | --- | --- | --- | --- | --- | --- | --- | --- |
| 1.1 | 48% | 10% | 3630 fmol | 7 | 3% | 3650 fmol | 8.96 | 8.74 | 78% | 0% | 6% | 65% |  |  | Nc1scc(CN2CCN(c3ccc(Cl)cc3)CC2)c1C(=O)c1ccc(Cl)cc1 |
| 0.9 | 5% | 9% | 1810 fmol | 3.5 | 4% | 3090 fmol | 8.92 | 8.77 | 69% | 0% | 0% | 46% |  |  | Nc1scc(CN2CCN(c3ccccn3)CC2)c1C(=O)c1ccc(Cl)cc1 |
| 1 | 26% | 4% | 3370 fmol | 6.5 | 0% | 3520 fmol | 9.00 | 8.72 | 78% | 0% | 0% | 62% |  |  | Nc1scc(CN2CCN(c3ccccc3)CC2)c1C(=O)c1ccc(Cl)cc1 |
| 1.1 | 53% | 10% | 3990 fmol | 7.7 | 0% | 3680 fmol | 9.00 | 8.72 | 87% | 0% | 15% | 84% |  |  | Nc1scc(CN2CCN(c3ccc(C(F)(F)F)cc3)CC2)c1C(=O)c1ccc(Cl)cc1 |
| 0.9 | 3% | 5% | 622 fmol | 1.2 | 0% | 3200 fmol | 8.96 | 8.72 | 52% | 0% | 5% | 13% |  |  | Nc1scc(CN2CCN(C3CCCCC3)CC2)c1C(=O)c1ccc(Cl)cc1 |
| 0.9 | 13% | 15% | 725 fmol | 1.4 | 0% | 3190 fmol | 8.96 | 8.72 | 34% | 0% | 0% | 23% |  |  | Nc1scc(CN2CCN(c3ccc4c(c3)OCO4)CC2)c1C(=O)c1ccc(Cl)cc1 |
| 1 | 4% | 3% | 3160 fmol | 6.1 | 0% | 3420 fmol | 8.96 | 8.77 | 78% | 0% | 0% | 30% |  |  | Nc1scc(CN2CCN(Cc3ccccc3)CC2)c1C(=O)c1ccc(Cl)cc1 |
|  | 3% | 8% | 673 fmol | 1.3 | 0% | 3340 fmol |  |  | 57% | 0% | 21% | 31% | 4.96 | 42% | Cc1sc(N)c(C(=O)c2cccc(C(F)(F)F)c2)c1C |
| 1 | 3% | 9% | 1450 fmol | 2.8 | 0% | 3320 fmol | 8.96 | 8.77 | 69% | 0% | 0% | 25% |  |  | Nc1scc(CN2CCN(c3ncccn3)CC2)c1C(=O)c1ccc(Cl)cc1 |
| 1 | 8% | 12% | 2490 fmol | 4.8 | 0% | 3260 fmol | 8.96 | 8.74 | 72% | 0% | 20% | 54% |  |  | N#Cc1ccc(N2CCN(Cc3csc(N)c3C(=O)c3ccc(Cl)cc3)CC2)cc1 |
| 1.1 | 19% | 3% | 3470 fmol | 6.7 | 0% | 3560 fmol | 9.00 | 8.74 | 77% | 0% | 17% | 63% |  |  | Nc1scc(CN2CCN(c3ccc(F)cc3)CC2)c1C(=O)c1ccc(Cl)cc1 |
| 0.9 | 3% | 10% | 2020 fmol | 3.9 | 0% | 3060 fmol | 9.00 | 8.77 | 66% | 0% | 0% | 22% |  |  | Cc1ccc(N2CCN(Cc3csc(N)c3C(=O)c3ccc(Cl)cc3)CC2)cc1 |

| SMILES | Activity [1] | Activity [2] | Activity [3] | Bmax [4] | Activity [5] | Activity [6] | Bmax [7] | pKd [8] | pKd [9] | Activity [10] | Activity [11] | Activity [12] | Activity [13] | pKi [14] | Activity [15] |
| --- | --- | --- | --- | --- | --- | --- | --- | --- | --- | --- | --- | --- | --- | --- | --- |
| CN1CCN(Cc2csc(N)c2C(=O)c2ccc(Cl)cc2)CC1 | 0.9 | 3% | 3% | 570 fmol | 1.1 | 0% | 2990 fmol | 8.92 | 8.77 | 16% | 3% | 0% | 1% |  |  |

From ChEMBL document CHEMBL1140063, “Synthesis and biological evaluation of 2-amino-3-(4-chlorobenzoyl)-4-[N-(substituted) piperazin-1-yl]thiophenes as potent allosteric enhancers of the A1 adenosine receptor” (J Med Chem, 2008)
